From patent publication US11406631B2, “Hydrazone derivatives for preventing or treating EBV-related cancers” (Universite de Bretagne Occidentale, priority 2018, dated 2022)

What was measured:
[1] = test system: EBNA1 expression in EBV-infected cells; assay: Western blot of endogenous EBNA1 in EBV-infected cell lines (B95.8, Mutu-1, Raji); type: cell-based; settings: GAr-dependent; 2a in B95.8, Mutu-1 and Raji, 11a in Raji
Description: Therefore, compound 2a interferes with the GAr-based inhibition of protein expression. Interference with EBNA1 expression in EBV-infected cells was assessed in different cell lines. The principle of these experiments is the same than the one described in the paragraph just above except that the steady state level of endogenous EBNA1 is determined in these EBV-infected cell lines.
B95.8 cells are derived from cotton-top Tamarin Monkey peripheral blood lymphocyte EBV-positif. Mutu-1 cells are derived from an EBV-positive Burkitt's lymphoma biopsy specimen from a patient. Raji cells are EBV-positive type III latency Burkitt's lymphoma.
Compounds 2a and 11a increase in a GAr-dependent manner EBNA1 expression in EBV-infected cells.

G4-RNA EBNA1 = assay: HT-G4-FID assay: Thiazole Orange displacement from G4-RNA; type: binding, Epstein-Barr virus; settings: for DC50: K+-100 buffer, pH 7.3, triplicate assays; for affinity for the G-quadruplex structure of EBNA1 (in words, FID data): conclusion from Table 1
Description: This assay is based on the displacement of a fluorescent indicator (Thiazole Orange, hereinafter TO) from a G4-RNA structure (RNA G-quadruplex of EBNA1) by a putative ligand such as the compounds of the invention (see FIG. 1). This displacement is quantified as % TO displacement. The percentage of TO displacement is calculated from the fluorescence intensity (F) in the presence of a putative ligand, using:
[formula] where F0 is fluorescence intensity of the probe (TO) bound to RNA without added ligand. The percentage of displacement is then plotted as a function of the concentration of added ligand. The RNA affinity of putative ligands is evaluated using the concentration of a ligand required to decrease the fluorescence of the probe by 50% (noted DC50), which is determined graphically from non-linear fitting of the displacement curve. […] 2. Materials and Reagents
Thiazole Orange (TO) and cacodylic acid were purchased from Aldrich and used without further purification. The oligoribonucleotide EBNA1 [5′-r(GGGGCAGGAGCAGGAGGA)-3′] (SEQ ID no 1) purified by reversed-phase HPLC was purchased from Eurogentec.
Stock solutions of the ligands (2 mM in DMSO (dimethylsulfoxyde)) were used for G4-FID assay, unless otherwise stated, and were stored at −20° C. Stock solutions of TO (2 mM in DMSO) were used for G4-FID assay. Fluorescent probe powders and solutions were stored and used, protected from light and used as aliquots to avoid freeze-thaw cycles. HT-G4-FID measurements were performed on a FLUOstar Omega microplate reader (BMG Labtech) with 96-well Non-Binding Surface black with black bottom polystyrene microplates (Corning ref 3650).
For HT-G4-FID assay, the oligonucleotide was dissolved in K^+−100-buffer (10 mM lithium cacodylate, pH 7.3, 100 mM KCl, 1 mM EDTA, 1% DMSO). Oligonucleotide concentrations were determined on the basis of their absorbance at 260 nm. Prior to use, the oligonucleotide was pre-treated by heating at 95° C. for 5 min followed by a slow cooling to 25° C.
Each G4-FID assay is performed in a 96-well microplates. […] The microplate is filled with (a) K^+−100 solution (qs for 200 μL) (b) 10 μL of a solution of pre-folded oligonucleotides (5 μM) and TO (10 μM-2 eq) and (c) an extemporaneously prepared 5 μM ligand solution in K^+−100 buffer (0 to 100 μL along the line of the microplate, i.e., from column […]: 0, 0.125, 0.25, 0.375, 0.5, 0.625, 0.75, 1.0, 1.25, 1.5, 2.0 and 2.5 μM) (see Largy et al., Anal Bioanal Chem 2011, 400, 34193427). After 5 min of orbital shaking at 500 rpm, fluorescence intensity is measured using the following experimental parameters: positioning delay: 0.5 s, 20 flashes per well, emission/excitation filters (nm): 485/520, gain adjusted at 80% of the fluorescence from the most fluorescent well (i.e., a well from column A).
Results are shown in Table 1 below (lower DC50 values indicate higher affinity of compounds to the G4-RNA structure of EBNA1).

[2] = test system: GAr-based inhibition of translation; assay: Yeast assay (assays described in Lista et al.); type: cell-based, Saccharomyces cerevisiae
Description: A yeast-based (Saccharomyces cerevisiae) assay that recapitulates all the aspects of the GAr-based inhibition of translation, including the GAr-length dependency, has been developed, that allowed understanding the mechanisms of GAr-mediated mRNA translation—suppression in cis, as well as the cellular factors involved (Lista et al. Biotechnol J 2015, 10, 1670-1681). This assay was successfully used to identify small molecular weight compounds that can stimulate EBNA1 expression both in yeast and mammalian cells and that relieve GAr-based limitation of antigen presentation (Voisset et al. Dis Model Mech 2014, 7, 435-444).
Compounds 1a, 2a, 4a, 5a, 7a, 10a and 11a were also tested in the various assay described in Lista et al. (Nat Commun 2017, 8, 16043).

Mutu-1 cells = assay: Cell viability (MTT assay); type: cell-based; parameters: dose or concentration left out as unconfirmed; settings: concentration range where they increase EBNA1 expression; preliminary results
Description: Stars indicate significant results (the higher the number of stars, the more significant).
Toxicity of various concentration of G4 ligands on Mutu-1 cells was assessed using the classical MTT assay. The results obtained with various concentrations of compounds 2a and 11a were compared to the result obtained with cells treated by DMSO (compound vehicle).

| SMILES | EBNA1 expression in EBV-infected cells [1] | DC50 (G4-RNA EBNA1) [µM] | affinity for the G-quadruplex structure of EBNA1 (in words, FID data) (G4-RNA EBNA1) | result in the yeast assay [2] | toxicity on Mutu-1 cells (Mutu-1 cells) |
| --- | --- | --- | --- | --- | --- |
| C[n+]1ccc(C=NNC(=O)c2cccc(C(=O)NN=Cc3cc[n+](C)c4ccccc34)n2)c2ccccc21.[I-].[I-] [Compound 2a, N′^2, N′^6-Bis[(1-methylquinolinium-4-yl)methylene]pyridine-2,6-dicarbohydrazide iodide] | increase | 0.26 ± 0.05 | particularly high affinity | positive results | not significantly toxic |
| C[n+]1ccc(C=NNC(=O)c2ccc3ccc4ccc(C(=O)NN=Cc5cc[n+](C)c6ccccc56)nc4c3n2)c2ccccc21.[I-].[I-] [Compound 11a, N′^2,N′^9-Bis[(1-methylquinolinium-4-yl)methylene]-1,10-phenanthroline-2,9-dicarbohydrazide iodide] | increase | 0.3 ± 0.03 | particularly high affinity | positive results | not significantly toxic |
